Values of other authors, collected in patent US10772837B2, “Modified release multi-layer tablet cannabinoid formulations” (CannTab Therapeutics, Limited, priority 2017, dated 2020).
Where two headings read alike, the source gives them in different places.

What was measured:
[1] = pure CBD, twice-daily dosages, paediatric patients; ranging from total seizure freedom to these reductions
[2] = for solubility: in water

SMILES | seizure reduction [1] | BCS class ([2]; NICHD/FDA Oral Formulations Platform Report 1) | solubility [2] | solubility ([2]; listed as dronabinol)
C=C(C)[C@@H]1CCC(C)=C[C@H]1c1c(O)cc(CCCCC)cc1O [CBD, cannabidiol] | 25-80% | – | – | –
CCCCCc1cc(O)c2c(c1)OC(C)(C)[C@@H]1CCC(C)=C[C@@H]21 [Dronabinol, (−)-trans-Δ9-tetrahydrocannabinol] | – | class 2 or class 4 | insoluble in water | low
